Measured values from ChEMBL document CHEMBL5154721, “Discovery of HDAC6-Selective Inhibitor NN-390 with in Vitro Efficacy in Group 3 Medulloblastoma” (J Med Chem, 2022).
Active and inactive are the calls of the source. The rule behind the calls is not given here.

Assays:
[1] = tested on: MV4-11; experiment: Induction of apoptosis in human MV4-11 cells assessed as viable cells at 0.25 uM after 24 hrs by Annexin V/PI staining based flow cytometric analysis (Rvb=58.28%); format: functional; details: read-out: Activity
[2] = target: T1, Protein deacetylase HDAC6 (Homo sapiens) (UniProt Q9UBN7); experiment: Inhibition of full length human recombinant HDAC6 in human MV4-11 cells assessed as acetylation of histone H3 at 5 uM by Western blot analysis; format: cell-based; details: time 6.0 hrs
T1 sequence (whole entry): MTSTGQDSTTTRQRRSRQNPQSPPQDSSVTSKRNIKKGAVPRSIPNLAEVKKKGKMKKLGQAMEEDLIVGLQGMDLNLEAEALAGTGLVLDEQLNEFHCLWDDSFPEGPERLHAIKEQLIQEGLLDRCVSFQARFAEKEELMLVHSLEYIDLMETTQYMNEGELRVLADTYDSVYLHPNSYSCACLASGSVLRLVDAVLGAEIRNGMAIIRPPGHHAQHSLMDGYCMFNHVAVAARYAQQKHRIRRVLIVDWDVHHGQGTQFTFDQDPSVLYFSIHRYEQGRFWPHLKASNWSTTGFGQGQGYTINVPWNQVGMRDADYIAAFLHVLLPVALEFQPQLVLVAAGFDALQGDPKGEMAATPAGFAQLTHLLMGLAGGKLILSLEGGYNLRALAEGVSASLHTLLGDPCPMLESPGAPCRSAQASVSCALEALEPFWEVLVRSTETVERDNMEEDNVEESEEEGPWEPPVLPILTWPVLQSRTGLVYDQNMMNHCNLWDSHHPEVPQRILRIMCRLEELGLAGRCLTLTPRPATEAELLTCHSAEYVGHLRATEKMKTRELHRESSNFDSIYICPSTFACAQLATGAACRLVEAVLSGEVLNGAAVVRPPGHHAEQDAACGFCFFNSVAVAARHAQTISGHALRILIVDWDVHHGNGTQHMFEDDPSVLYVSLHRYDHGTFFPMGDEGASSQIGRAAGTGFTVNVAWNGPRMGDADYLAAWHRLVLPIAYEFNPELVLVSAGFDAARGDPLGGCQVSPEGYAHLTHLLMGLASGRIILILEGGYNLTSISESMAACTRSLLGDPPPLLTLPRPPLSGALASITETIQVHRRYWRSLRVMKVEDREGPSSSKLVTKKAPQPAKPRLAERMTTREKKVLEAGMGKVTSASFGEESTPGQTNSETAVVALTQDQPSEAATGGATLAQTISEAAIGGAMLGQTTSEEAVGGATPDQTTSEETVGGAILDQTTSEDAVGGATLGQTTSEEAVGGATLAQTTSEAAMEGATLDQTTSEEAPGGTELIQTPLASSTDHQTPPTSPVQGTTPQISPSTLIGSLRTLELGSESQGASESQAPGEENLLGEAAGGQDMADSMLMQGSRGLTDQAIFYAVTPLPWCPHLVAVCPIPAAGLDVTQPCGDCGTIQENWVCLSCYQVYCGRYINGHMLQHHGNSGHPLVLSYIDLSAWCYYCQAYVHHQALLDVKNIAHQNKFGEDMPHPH

[3] = target: T1, Protein deacetylase HDAC6 (Homo sapiens); experiment: Inhibition of full length human recombinant HDAC6 in human MV4-11 cells assessed as increase in acetylation of histone H3 for 6 hrs by immunofluorescence imaging method; format: cell-based; details: dose 0.1-2 µM, DDE = dose-dependent effect
[4] = target: Histone deacetylase 9 (Homo sapiens, UniProt Q9UKV0); experiment: Inhibition of full length human recombinant HDAC9 expressed in Sf9 baculovirus system using FAM-labeled acetylated peptide as substrate by measuring fluorescence intensity by EMSA method
[5] = target: T1, Protein deacetylase HDAC6 (Homo sapiens); experiment: Binding affinity to full length human recombinant HDAC6 expressed in Sf9 baculovirus system assessed as residence time (1/koff)
[6] = tested on: MV4-11; experiment: Induction of apoptosis in human MV4-11 cells assessed as late apoptotic cells at 2 uM after 24 hrs by Annexin V/PI staining based flow cytometric analysis (Rvb=2%); format: functional
[7] = tested on: MV4-11; experiment: Induction of apoptosis in human MV4-11 cells assessed as viable cells at 2 uM after 24 hrs by Annexin V/PI staining based flow cytometric analysis (Rvb=58.28%); format: functional; details: read-out: Activity
[8] = tested on: MV4-11; experiment: Induction of apoptosis in human MV4-11 cells assessed as early apoptotic cells at 1 uM after 24 hrs by Annexin V/PI staining based flow cytometric analysis (Rvb=2%); format: functional
[9] = Cytotoxicity against human fetal neuronal stem cells assessed as inhibition of cell growth incubated for 72 hrs measured by spectrophotometer analysis; format: toxicity, cell-based, NSC
[10] = tested on: MV4-11; experiment: Induction of apoptosis in human MV4-11 cells assessed as viable cells at 1 uM after 24 hrs by Annexin V/PI staining based flow cytometric analysis (Rvb=58.28%); format: functional; details: read-out: Activity
[11] = target: T1, Protein deacetylase HDAC6 (Homo sapiens); experiment: Inhibition of full length human recombinant HDAC6 in human MV4-11 cells assessed as increase in acetylation of […] for 6 hrs by immunofluorescence imaging method; format: cell-based; details: dose 0.1-2 µM, DDE = dose-dependent effect
[12] = tested on: MV4-11; experiment: Induction of apoptosis in human MV4-11 cells assessed as viable cells at 0.75 uM after 24 hrs by Annexin V/PI staining based flow cytometric analysis (Rvb=58.28%); format: functional; details: read-out: Activity
[13] = tested on: MV4-11; experiment: Induction of apoptosis in human MV4-11 cells assessed as early apoptotic cells at 0.75 uM after 24 hrs by Annexin V/PI staining based flow cytometric analysis (Rvb=2%); format: functional
[14] = target: Histone deacetylase 4 (Homo sapiens, UniProt P56524); experiment: Inhibition of full length human recombinant HDAC4 expressed in Sf9 baculovirus system using FAM-labeled acetylated peptide as substrate by measuring fluorescence intensity by EMSA method
[15] = tested on: MV4-11; experiment: Induction of apoptosis in human MV4-11 cells assessed as early apoptotic cells at 2 uM after 24 hrs by Annexin V/PI staining based flow cytometric analysis (Rvb=2%); format: functional
[16] = tested on: MM1.S; experiment: Cytotoxicity against human MM1.S cells assessed as inhibition of cell growth incubated for 72 hrs measured by spectrophotometer analysis; format: functional, cell-based
[17] = target: Histone deacetylase 2 (Homo sapiens, UniProt Q92769); experiment: Inhibition of full length human recombinant HDAC2 expressed in Sf9 baculovirus system using FAM-labeled acetylated peptide as substrate by measuring fluorescence intensity by EMSA method
[18] = in vitro; details: human, MRC9 cells
[19] = tested on: MV4-11; experiment: cells; format: functional, cell-based; details: Homo sapiens, MV4-11, 72 h
[20] = target: Histone deacetylase 5 (Homo sapiens, UniProt Q9UQL6); experiment: Inhibition of full length human recombinant HDAC5 expressed in Sf9 baculovirus system using FAM-labeled acetylated peptide as substrate by measuring fluorescence intensity by EMSA method
Chain of Histone deacetylase 5 (Q9UQL6 whole entry): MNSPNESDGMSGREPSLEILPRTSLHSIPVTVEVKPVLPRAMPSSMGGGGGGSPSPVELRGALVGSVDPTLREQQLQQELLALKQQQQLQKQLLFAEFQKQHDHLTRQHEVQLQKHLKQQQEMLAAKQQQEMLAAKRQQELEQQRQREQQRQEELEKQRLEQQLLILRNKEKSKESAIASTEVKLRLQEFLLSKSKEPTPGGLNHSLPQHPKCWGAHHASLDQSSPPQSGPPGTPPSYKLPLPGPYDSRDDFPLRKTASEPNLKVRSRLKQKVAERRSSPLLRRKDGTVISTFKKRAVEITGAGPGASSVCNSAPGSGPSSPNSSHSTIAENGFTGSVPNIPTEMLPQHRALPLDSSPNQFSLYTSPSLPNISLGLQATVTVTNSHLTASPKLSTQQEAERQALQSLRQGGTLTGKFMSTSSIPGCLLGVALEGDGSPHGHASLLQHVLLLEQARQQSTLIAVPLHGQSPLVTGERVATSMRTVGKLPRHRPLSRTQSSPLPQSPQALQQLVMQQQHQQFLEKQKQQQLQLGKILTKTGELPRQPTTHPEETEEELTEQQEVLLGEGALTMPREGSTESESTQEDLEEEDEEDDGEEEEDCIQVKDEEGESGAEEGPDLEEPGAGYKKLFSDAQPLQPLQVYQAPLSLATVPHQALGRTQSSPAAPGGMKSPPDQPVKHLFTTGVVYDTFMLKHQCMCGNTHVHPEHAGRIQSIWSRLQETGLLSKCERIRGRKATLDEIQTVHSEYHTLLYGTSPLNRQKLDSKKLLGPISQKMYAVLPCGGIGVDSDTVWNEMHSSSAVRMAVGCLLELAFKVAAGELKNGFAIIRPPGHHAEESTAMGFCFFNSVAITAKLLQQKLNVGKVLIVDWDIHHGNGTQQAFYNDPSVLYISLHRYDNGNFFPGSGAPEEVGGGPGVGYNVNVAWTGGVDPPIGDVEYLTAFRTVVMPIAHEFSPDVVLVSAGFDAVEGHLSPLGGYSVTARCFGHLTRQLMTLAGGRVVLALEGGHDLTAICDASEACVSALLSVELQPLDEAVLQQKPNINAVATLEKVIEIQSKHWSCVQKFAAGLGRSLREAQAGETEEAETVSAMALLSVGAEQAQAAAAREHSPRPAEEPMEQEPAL

Chain of Histone deacetylase 2 (Q92769 whole entry): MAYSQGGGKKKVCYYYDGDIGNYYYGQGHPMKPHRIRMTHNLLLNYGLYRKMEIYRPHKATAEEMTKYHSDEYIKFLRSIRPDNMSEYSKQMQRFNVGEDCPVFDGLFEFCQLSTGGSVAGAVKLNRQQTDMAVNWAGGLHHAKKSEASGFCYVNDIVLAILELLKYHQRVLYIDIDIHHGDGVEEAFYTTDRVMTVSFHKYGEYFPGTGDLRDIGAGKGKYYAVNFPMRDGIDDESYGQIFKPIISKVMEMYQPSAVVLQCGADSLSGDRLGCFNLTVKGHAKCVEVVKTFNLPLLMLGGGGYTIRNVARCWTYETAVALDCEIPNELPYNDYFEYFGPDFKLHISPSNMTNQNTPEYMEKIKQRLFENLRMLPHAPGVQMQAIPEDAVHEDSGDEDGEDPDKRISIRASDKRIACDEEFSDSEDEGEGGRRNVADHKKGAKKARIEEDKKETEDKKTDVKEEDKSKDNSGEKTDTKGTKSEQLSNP
Chain of Histone deacetylase 4 (P56524 whole entry): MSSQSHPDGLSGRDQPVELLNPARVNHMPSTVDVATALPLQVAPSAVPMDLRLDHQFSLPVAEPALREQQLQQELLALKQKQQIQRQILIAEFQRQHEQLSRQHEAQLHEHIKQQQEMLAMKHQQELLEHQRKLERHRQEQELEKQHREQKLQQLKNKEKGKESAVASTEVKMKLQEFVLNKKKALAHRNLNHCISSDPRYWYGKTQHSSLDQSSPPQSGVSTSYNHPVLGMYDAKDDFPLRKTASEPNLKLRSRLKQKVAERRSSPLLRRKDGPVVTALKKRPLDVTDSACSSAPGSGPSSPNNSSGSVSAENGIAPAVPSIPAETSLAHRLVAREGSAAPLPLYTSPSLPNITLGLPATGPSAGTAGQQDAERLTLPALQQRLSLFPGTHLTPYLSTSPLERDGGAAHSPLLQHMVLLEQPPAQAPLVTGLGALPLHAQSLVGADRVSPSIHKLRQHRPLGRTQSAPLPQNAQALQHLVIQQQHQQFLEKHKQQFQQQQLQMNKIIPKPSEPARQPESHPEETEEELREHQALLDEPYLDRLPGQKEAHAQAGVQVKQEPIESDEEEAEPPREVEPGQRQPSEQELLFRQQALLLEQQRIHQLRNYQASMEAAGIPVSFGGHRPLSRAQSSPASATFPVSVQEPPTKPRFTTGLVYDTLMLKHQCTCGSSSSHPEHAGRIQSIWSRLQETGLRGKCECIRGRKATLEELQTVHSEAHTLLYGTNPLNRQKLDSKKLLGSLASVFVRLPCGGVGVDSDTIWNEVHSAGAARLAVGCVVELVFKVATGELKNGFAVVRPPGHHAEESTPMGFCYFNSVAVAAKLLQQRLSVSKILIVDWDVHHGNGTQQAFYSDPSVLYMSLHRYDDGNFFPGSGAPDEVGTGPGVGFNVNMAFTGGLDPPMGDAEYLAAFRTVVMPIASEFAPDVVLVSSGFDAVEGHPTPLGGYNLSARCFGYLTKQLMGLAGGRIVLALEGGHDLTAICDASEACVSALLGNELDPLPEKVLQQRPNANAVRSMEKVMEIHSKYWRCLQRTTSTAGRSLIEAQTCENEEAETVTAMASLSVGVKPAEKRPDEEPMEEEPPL
Chain of Histone deacetylase 9 (Q9UKV0 whole entry): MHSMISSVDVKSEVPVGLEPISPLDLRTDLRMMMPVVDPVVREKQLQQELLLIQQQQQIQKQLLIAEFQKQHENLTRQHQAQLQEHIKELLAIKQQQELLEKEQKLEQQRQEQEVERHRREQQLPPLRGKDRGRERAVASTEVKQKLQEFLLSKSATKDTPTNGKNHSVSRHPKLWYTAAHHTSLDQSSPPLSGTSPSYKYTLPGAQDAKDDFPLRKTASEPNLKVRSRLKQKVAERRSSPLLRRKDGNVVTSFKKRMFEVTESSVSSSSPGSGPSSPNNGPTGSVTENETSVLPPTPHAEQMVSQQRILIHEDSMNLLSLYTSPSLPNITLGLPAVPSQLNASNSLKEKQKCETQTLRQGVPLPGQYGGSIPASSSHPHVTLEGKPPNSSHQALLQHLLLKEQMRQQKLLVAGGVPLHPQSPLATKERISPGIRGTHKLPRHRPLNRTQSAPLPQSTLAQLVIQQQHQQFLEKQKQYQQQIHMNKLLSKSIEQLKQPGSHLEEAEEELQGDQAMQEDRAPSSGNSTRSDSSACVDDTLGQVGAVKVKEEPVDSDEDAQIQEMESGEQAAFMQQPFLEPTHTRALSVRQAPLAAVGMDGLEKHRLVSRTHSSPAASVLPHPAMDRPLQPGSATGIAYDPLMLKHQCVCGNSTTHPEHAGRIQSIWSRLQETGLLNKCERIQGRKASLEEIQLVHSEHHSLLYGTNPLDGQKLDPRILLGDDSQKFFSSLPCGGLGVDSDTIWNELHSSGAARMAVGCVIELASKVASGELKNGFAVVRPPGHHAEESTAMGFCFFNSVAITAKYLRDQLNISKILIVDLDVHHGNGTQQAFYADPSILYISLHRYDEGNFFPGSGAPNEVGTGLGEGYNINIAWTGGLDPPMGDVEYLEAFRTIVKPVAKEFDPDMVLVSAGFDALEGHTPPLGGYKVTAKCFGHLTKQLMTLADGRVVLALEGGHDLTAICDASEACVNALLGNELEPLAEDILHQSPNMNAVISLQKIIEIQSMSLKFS

inhibition [2]: Active | inhibition [3]: Dde | IC50 [4]: > 5000 nM | TIME [5]: 0.133 h | inhibition [11]: Dde | IC50 [14]: > 4000 nM | IC50 [17]: 316 nM | IC50 at 72 h [18]: > 50000 nM | IC50 [19]: 1190 nM | IC50 [20]: > 3000 nM
SMILES: CC(C)N(Cc1ccc(C(=O)NO)cc1)S(=O)(=O)c1cc(F)c(F)c(F)c1F
viability at 0.25 µM [1]: 82% | Activity [6]: 23.4% | viability at 2 µM [7]: 32.9% | Activity [8]: 3.32% | IC50 at 72 h [9]: 5760 nM | viability at 1 µM [10]: 56.3% | viability at 0.75 µM [12]: 85.7% | Activity [13]: 2.28% | Activity [15]: 3.59% | IC50 [16]: 1380 nM
